Data taken from article PMC11500415, “Chemical inhibition of stomatal differentiation by perturbation of the master-regulatory bHLH heterodimer via an ACT-Like domain” (Nature Communications, 2024).
Like-named read-outs stand apart in the source and are kept apart here.

Assays:
MUTE_ACTL [1] = target: T1, MUTE_ACTL (Arabidopsis thaliana, UniProt Q9M8K6); assay: BLI direct binding; parameters: species or system A. thaliana; details: for binding to MUTE by BLI (in words): BLI (Supplementary Table 3); for Kd: MUTE_ACTL
T1 construct: MUTE-ACTL (114-202); made in house; host or cells: E. coli BL21
T1 sequence (Q9M8K6 114-202): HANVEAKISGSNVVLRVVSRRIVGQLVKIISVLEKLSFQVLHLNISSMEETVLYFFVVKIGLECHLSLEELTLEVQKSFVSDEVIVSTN
Excerpt: (§1) A. thaliana SCRM (1-494), ΔNSPCH (98-364), MUTE (1-202), ΔNFAMA (190-414), MUTEΔC (1-114), MUTER133A_R134A, MUTEE162A_E163A, MUTER133A_R134A_E162A_E163A, SCRM-ACTL (405-494), MUTE-ACTL (114-202), SPCH-ACTL (285-364), FAMA-ACTL (306-414), MUTE_ACTLR133A_R134A, MUTE_ACTLE162A_E163A, MUTE_ACTLR133A_R134A_E162A_E163A were cloned into pGEX-4T-1 vector with an N-terminal GST tag and a thrombin cleavage sequence. For protein expression, the constructs were transformed into E. coli strain BL21. For each transformant, a single colony was selected and incubated in 10 ml LB liquid media. The overnight-incubated E. coli suspensions were transferred to 1 L LB medium and incubated at 37 °C for around 2 h until the OD600 reached 0.4–0.6. The isopropyl β-D-1-thiogalactopyranoside ([…] of final concentration) was added to the cultures and the strains were incubated at 22 °C for a further 18 h. GST-fused proteins were purified using glutathione agarose resin. The soluble portion of the cell lysate was loaded onto a GST-Sepharose column. Nonspecifically bound proteins were removed by washing the column with 20 mM Tris pH 8.0, 200 mM NaCl. The bound GST-fused protein was eluted with 10 mm glutathione and 20 mM Tris pH 8.0, 200 mM NaCl. The GST-fused proteins were exchanged with phosphate-buffered saline buffer, and then the solution was treated with 50 μg of thrombin for 10–12 h at 16 ^οC. The GST portion of the protein was cleaved during thrombin digestion, and then the whole solution was reloaded onto the glutathione S-transferase column to obtain pure protein. The purified proteins were further purified by gel filtration on a Superdex-200 (GE) column using fast protein liquid chromatography and phosphate buffer (pH 7.2) as the eluent. The purity of the protein was checked by SDS-PAGE. For detailed lists of oligo DNA and plasmid information, see Supplementary Tables 5, 6, respectively.
The binding affinities of SCRM to MUTE / MUTER133A_R134A / MUTEE162A_E163A / MUTER133A_R134A_E162A_E163A in presence and absence of Stomidazolone (3) and its analogues (AYSJ1059 (5) and AYSJ1061 (6)), and Stomidazolone / AYSJ1059 / AYSJ1061 interactions with GST-tagged SCRM, MUTE, SPCH, FAMA, MUTE ΔACTL, MUTE_ACTL, SCRM_ACTL, SPCH_ACTL and FAMA_ACTL, MUTER133A_134A, MUTEE162A_E163A, MUTER133A_R134A_E162A_E163A were measured using the Octet Red96 system (ForteBio, Pall Life Sciences) following the manufacturer’s protocols. The optical probes coated with anti-GST were first loaded with 500 nM GST tagged proteins before kinetic binding analyses. The experiment was performed in 96-well plates maintained at 30 °C. Each well was loaded with 200 μL reaction volume for the experiment. The binding buffer used in these experiments contained 1× PBS supplemented with 2% DMSO, 0.02% Tween20. […] There was no binding of the analytes to the unloaded probes as shown by the control wells. Binding kinetics to all seven concentrations of the analytes were measured simultaneously using default parameters on the instrument. The data were analyzed using the Octet data analysis software. The association and dissociation curves were fit with the 1:1 homogeneous ligand model. The kobs (observed rate constant) values were used to calculate Kd, with steady-state analysis of the direct binding. See Supplementary Table 3 for details.

MUTE_ACTL [2] = target: T1, MUTE_ACTL; assay: ITC direct binding; parameters: species or system A. thaliana; details: ITC (Supplementary Fig. 8, Supplementary Table 2)
Excerpt: as §1
Binding of the small molecule Stomidazolone (3) to SCRM, MUTE, SPCH, FAMA, MUTEΔC, MUTE_ACTL, SCRM_ACTL, SPCH_ACTL and FAMA_ACTL, MUTER133A_R134A, MUTEE162A_E163A, MUTER133A_R134A_E162A_E163A, as well as SCRM binding to MUTE in the presence and absence of Stomidazolone (3) / AYSJ1059 (5) /AYSJ1061 (6) was characterized at 30 °C using a Malvern PEAQ-ITC microcalorimeter. All the protein samples were dialyzed overnight using PBS buffer containing 2% DMSO and 1 mM DTT. Stomidazolone was dissolved in PBS buffer containing 2% DMSO and 1 mM DTT. Titrations were performed by injecting 1 × 0.5-μL and 12 × 3-μL or 1 × 0.75-μL and 18 × 2-μL or 1 × 0.2-μL and 25 × 1.3-μL aliquots of 1 mM Stomidazolone / AYSJ1059 / AYSJ1061 to 5-30 μM of protein in PBS buffer pH 7.4, containing 2% DMSO and 1 mM DTT. All titrations were carried out at least twice. The raw data were corrected using buffer and protein controls and analyzed using the software supplied by the manufacturer. See Supplementary Table 3 for details.

[3] = BLI steady state, read-out: KD (SS)

| SMILES | binding to MUTE by BLI (in words) (MUTE_ACTL [1]) | Kd (MUTE_ACTL [1]; [3]) [µM] | Kd (MUTE_ACTL [1]; BLI, read-out: KD) [µM] | binding to MUTE analyzed by ITC (in words) (MUTE_ACTL [2]) |
| --- | --- | --- | --- | --- |
| Cc1ccc(C2(NS(=O)(=O)c3ccccc3)N=C(c3ccccc3)C(=O)N2S(=O)(=O)c2ccccc2)cc1 (centres unmarked) [AYSJ1059] | substantially weak binding | 126 ± 13.5 | 123 ± 6.5 | no binding |
| O=C1C(c2ccccc2)=NC(NS(=O)(=O)c2ccccc2)(c2ccc(Br)cc2)N1S(=O)(=O)c1ccccc1 (centres unmarked) [AYSJ1061] | substantially weak binding | 139 ± 9.5 | 135 ± 5.5 | no binding |
